For series [1] the following is noted: injectable forms; cited from earlier work.
The subject of series [2] is convulsions induced by pentylene tetrazole. Description: Metrazole (pentylene tetrazole) convulsant threshold test (MET). It is filed as in vivo, mice. Conditions: Mus musculus, ip, read-out: Anticonvulsive activity ED50, MET. The text has this:
(§1) The anticonvulsive effect of the compounds was studied on three types of experimental epilepsy. Convulsions were induced in mice by subcutaneous administration of pentylene tetrazole or strychnine, or by electrical stimulation with a 50 mA current (E. A. Swinyard, Assay of antiepileptic drug activity in experimental animals: Standard tests in International Enocyclopedica of Pharmacology and Therapeutics, Section 19, vol 1: Anticonvulsant Drugs, 1972). […] No sedative effect could be observed.
MET = metrazole (= pentylene tetrazole) convulsant threshold test.

For series [3], the system named is convulsions induced by electrical stimulation (maximal electroshock). Kind of series: Maximal electroshock test (MES), 50 mA electrical stimulation. It is filed as in vivo, mice. Conditions: Mus musculus, ip, read-out: Anticonvulsive activity ED50, MES.
Description: as §1
MES = maximal electroshock test
Background: In the maximal electroshock model the usual endpoint is tonic extension of the hind limbs.

For another series, the system named is experimental epilepsy. Conditions: several types of experimental epilepsy; cited from earlier work.
Another series deals with epileptic patients. Conditions: cited from earlier work.
The test system of series [4] is arrhythmia in guinea-pigs after infusion of ouabain. Description: Ouabain-induced arrhythmia in guinea-pigs. The note with it: for Ouabain dose ± SE, inducing arrhythmia / Ouabain dose ± SE, inducing asystole: ouabain 20 μg/kg/min. An excerpt:
Arrhythmia was induced by K^+ deficiency and by aconitine. […] Besides the above-described in vitro tests, an in vivo method was used: the antiarrhythmic effect of the compounds was studied in quineapigs with ouabain-induced arrhythmia.

The next series relates to bacteria. The note with it: cited from earlier work.
Series [5] has as its system convulsions induced by strychnine. Description: Strychnine convulsant threshold test (STR). Conditions: Mus musculus, ip, read-out: Anticonvulsive activity ED50, STR. It is filed as in vivo, mice.
Description: as §1
STR = strychnine convulsant threshold test

For series [6] the following is noted: mice, intraperitoneal; cited from earlier work.
Series [7] deals with convulsions induced by pentylene tetrazole, strychnine or electrical stimulation. Kind of series: Anticonvulsive effect in three types of experimental epilepsy. In kind it is in vivo, mice. Conditions: in words.
Description: as §1

The subject of series [8] is hexobarbiturate-induced sleep in mice. Kind of series: Hexobarbiturate-induced sleep. It is filed as in vivo.
Another series relates to arrhythmia. Description: Antiarrhythmic effect (general statement). Conditions: in words. The text has this:
Isolated perfused rat heart, prepared after the method of Langendorff, and isolated spontaneously beating rat atria (W. C. Holland & J. H. Burn, J. Brit. Med., vol 1, 1031, 1958) were used for studies of the antiarrhythmic effect of the compounds. Arrhythmia was induced by K^+ deficiency and by aconitine. […] Besides the above-described in vitro tests, an in vivo method was used: the antiarrhythmic effect of the compounds was studied in quineapigs with ouabain-induced arrhythmia.

The mark [9] stands for this setting: mice, metrazole convulsant threshold test.
Setting [10] is: mice, maximal electroshock test.
[11] abbreviates: O-value (initial), group dosed 3 mg/kg iv.
[12] abbreviates: O-value (initial), group dosed 6 mg/kg iv.
Setting [13] is: O-value (initial), group dosed 12 mg/kg iv.

Where two headings read alike, the source gives them in different places.

On to `CC(=O)NCCS(=O)(=O)O` [N-acetyl taurine], for which, in series [1], the “Penetration of the blood-brain barrier” value is given as “penetrate the bloodbrain barrier”.

`O=C1c2ccccc2C(=O)N1CCS(=O)(=O)N1CCCC1` [2-Phthalimidoethanesulfone pyrrolidide]: the ED50 in series [2] (setting [9]) and in [3] (setting [10]) was greater than 300 mg/kg in each case.

In the case of `NCCS(=O)(=O)O` [Taurine, 2-aminoethanesulfonic acid], the “Direct central anticonvulsive effect” value with experimental epilepsy is listed as “direct central anticonvulsive effect”. In the series with epileptic patients, the Antiepileptic action result is recorded as “antiepileptic action”.

`CCCCNS(=O)(=O)CCN1C(=O)c2ccccc2C1=O` [2-Phthalimidoethanesulfone n-butylamide]: the ED50 in series [2] (setting [9]) is greater than 300 mg/kg; in series [3] (setting [10]), 219 mg/kg. The “HR ± SE, 5 min. after adm. of test compound” value (“HR ± SE … of test compound” for short) is listed as 213 beats/min in series [4] (3 mg/kg iv) and 256 ± 43 beats/min in series [4] (6 mg/kg iv). Moreover, the results for the “Ouabain dose ± SE, inducing arrhythmia” value in series [4] (3 mg/kg iv) and in series [4] (6 mg/kg iv) were 0.175 mg/kg and 0.2 ± 0 mg/kg, respectively. The “Ouabain dose ± SE, inducing asystole” value in [4] (3 mg/kg iv) worked out at 0.34 mg/kg; in series [4] (6 mg/kg iv), 0.382 ± 0.037 mg/kg. For the same compound, the “HR ± SE, O-value” in [4] (setting [11]) came out at 210 beats/min; in series [4] (setting [12]) it was 256 ± 19 beats/min.

As for `NS(=O)(=O)CCN1C(=O)c2ccccc2C1=O` [2-Phthalimidoethanesulfone amide, 2-phthalimidoethane sulfonamide], the Antibacterial properties result in the series with bacteria is given as “did not come up to expectations”. The median effective dose (ED50) was greater than 300 mg/kg in series [2] (setting [9]), 93 mg/kg in series [5] and 122 mg/kg in series [3] (setting [10]). In addition, the “HR ± SE … of test compound” value in series [4] (12 mg/kg iv) was 330 beats/min. For the same compound, the “Ouabain dose ± SE, inducing arrhythmia” value in series [4] (12 mg/kg iv) was found to be 0.17 mg/kg. Moreover, the “Ouabain dose ± SE, inducing asystole” value in series [4] (12 mg/kg iv) was 0.22 mg/kg. The “HR ± SE, O-value” in series [4] (setting [13]) is given as 333 beats/min.

Consider `CN(C)S(=O)(=O)CCN1C(=O)c2ccccc2C1=O` [2-Phthalimidoethanesulfone dimethylamide, 2-phthalimidoethanesulfone dimethylamide], for which the Antibacterial properties result with bacteria is on record as “did not come up to expectations”. The median effective dose (ED50) in series [2] (setting [9]) is 231 mg/kg; in series [5], 234 mg/kg; in series [3] (setting [10]) it was 113 mg/kg.

Consider `CC(C)(C)C(=O)NCCS(=O)(=O)O` [N-pivaloyl taurine], for which the “Penetration of the blood-brain barrier” value in series [6] is “penetrated the blood-brain barrier”.

For the compound `CC(C)NS(=O)(=O)CCN1C(=O)c2ccccc2C1=O` [2-Phthalimidoethanesulfone isopropylamide], the ED50 is greater than 300 mg/kg in [2], 227 mg/kg in series [5] and 130 mg/kg in series [3]. For the same compound, the “HR ± SE … of test compound” value came to 312 ± 27 beats/min in series [4] (3 mg/kg iv) and 291 beats/min in series [4] (6 mg/kg iv). The “Ouabain dose ± SE, inducing arrhythmia” value in series [4] (3 mg/kg iv) was determined as 0.197 ± 0.032 mg/kg; in series [4] (6 mg/kg iv), 0.155 mg/kg. Further, the figures for the “Ouabain dose ± SE, inducing asystole” value in series [4] (3 mg/kg iv) and in series [4] (6 mg/kg iv) were 0.297 ± 0.027 mg/kg and 0.29 mg/kg, respectively. In addition, the “HR ± SE, O-value” in series [4] (setting [11]) came to 321 ± 39 beats/min; in [4] (setting [12]) it was 303 beats/min.

`CCCNS(=O)(=O)CCN1C(=O)c2ccccc2C1=O` [2-Phthalimidoethanesulfone n-propylamide]: the ED50 in series [2] (setting [9]) was greater than 300 mg/kg; in series [5], greater than 300 mg/kg; in series [3] (setting [10]), 252 mg/kg. The “HR ± SE … of test compound” value in series [4] (2 mg/kg iv) is 243 ± 18 beats/min; in series [4] (3 mg/kg iv) it was 294 ± 45 beats/min. The “Ouabain dose ± SE, inducing arrhythmia” value in series [4] (2 mg/kg iv) is 0.165 ± 0.01 mg/kg; in [4] (3 mg/kg iv), 0.16 ± 0.01 mg/kg. Further, the “Ouabain dose ± SE, inducing asystole” value in series [4] (2 mg/kg iv) was determined as 0.272 ± 0.027 mg/kg; in series [4] (3 mg/kg iv), 0.322 ± 0.062 mg/kg. Further, the “HR ± SE, O-value” was 229 ± 34 beats/min in [4] (O-value (initial), group dosed 2 mg/kg iv) and 286 ± 55 beats/min in series [4] (setting [11]).

`CC(=O)NS(=O)(=O)CCN1C(=O)c2ccccc2C1=O` [2-Phthalimidoethanesulfonyl acetamide, 2-phthalimidoethanesulfonyl acetamide]: the ED50 in series [2] (setting [9]) and in series [3] (setting [10]) was greater than 300 mg/kg each time. Moreover, the Anticonvulsive effect entry in [7] was “no anticonvulsive effect”. Further, the “HR ± SE … of test compound” value in series [4] (1 mg/kg iv) was 316 ± 10 beats/min; in [4] (3 mg/kg iv), 259 ± 10 beats/min; in series [4] (6 mg/kg iv), 334 ± 11 beats/min; in [4] (12 mg/kg iv) it was 349 ± 19 beats/min. The “Ouabain dose ± SE, inducing arrhythmia” value in [4] (1 mg/kg iv) amounted to 0.185 ± 0.005 mg/kg; in series [4] (3 mg/kg iv) it was 0.215 ± 0.024 mg/kg; in [4] (6 mg/kg iv), 0.212 ± 0.016 mg/kg; in series [4] (12 mg/kg iv), 0.21 ± 0.016 mg/kg. In addition, the “Ouabain dose ± SE, inducing asystole” value in series [4] (1 mg/kg iv) worked out at 0.307 ± 0.002 mg/kg; in series [4] (3 mg/kg iv), 0.355 ± 0.02 mg/kg; in series [4] (6 mg/kg iv), 0.345 ± 0.026 mg/kg; in series [4] (12 mg/kg iv), 0.36 ± 0.013 mg/kg. The “HR ± SE, O-value” in series [4] (O-value (initial), group dosed 1 mg/kg iv) worked out at 292 ± 1 beats/min; in [4] (setting [11]) it was 260 ± 9 beats/min; in [4] (setting [12]), 329 ± 15 beats/min; in series [4] (setting [13]), 329 ± 19 beats/min. Moreover, the “Prolongation of hexobarbiturate-induced sleep” value in series [8] is listed as “did not prolong the time of sleep”. In the series with arrhythmia, the Antiarrhythmic effect result is given as “had an antiarrhythmic”.

For `CC(C)(C)NS(=O)(=O)CCN1C(=O)c2ccccc2C1=O` [2-Phthalimidoethanesulfone tert-butylamide], the ED50 in series [2] (setting [9]) and in series [3] (setting [10]) was greater than 300 mg/kg in each case.

In the case of `CC(C)NCC(O)COc1cccc2ccccc12` (stereo not drawn) [Propranolol, reference compound], the figures for the “Ouabain dose ± SE, inducing arrhythmia” value in series [4] (1 mg/kg iv), in series [4] (3 mg/kg iv) and in series [4] (6 mg/kg iv) were 0.24 ± 0.005 mg/kg, 0.295 ± 0.035 mg/kg and 0.269 ± 0.039 mg/kg, respectively. The figures for the “Ouabain dose ± SE, inducing asystole” value in [4] (1 mg/kg iv), in series [4] (3 mg/kg iv) and in series [4] (6 mg/kg iv) were 0.363 ± 0.011 mg/kg, 0.435 ± 0.024 mg/kg and 0.418 ± 0.034 mg/kg, respectively. Moreover, the “HR ± SE, O-value” in series [4] (guinea pig, in vivo, iv, 1 mg/kg) is 280 ± 17 beats/min; in [4] (guinea pig, in vivo, iv, 3 mg/kg), 293 ± 17 beats/min; in series [4] (guinea pig, in vivo, iv, 6 mg/kg) it was 301 ± 10 beats/min. In addition, the Bradycardia entry in [4] (guinea-pigs) was “caused bradycardia”.

In the case of `CCNS(=O)(=O)CCN1C(=O)c2ccccc2C1=O` [2-Phthalimidoethanesulfone ethylamide], the ED50 in series [2] (setting [9]) was found to be 138 mg/kg; in series [5], 126 mg/kg; in series [3] (setting [10]), 103 mg/kg. The “HR ± SE … of test compound” value was 332 ± 16 beats/min in series [4] (3 mg/kg iv) and 270 beats/min in series [4] (6 mg/kg iv). In addition, the “Ouabain dose ± SE, inducing arrhythmia” value in [4] (3 mg/kg iv) was found to be 0.175 ± 0.005 mg/kg; in [4] (6 mg/kg iv), 0.15 mg/kg. Besides, the results for the “Ouabain dose ± SE, inducing asystole” value in series [4] (3 mg/kg iv) and in series [4] (6 mg/kg iv) were 0.318 ± 0.022 mg/kg and 0.36 mg/kg, respectively. Also, the “HR ± SE, O-value” is recorded as 332 ± 22 beats/min in series [4] (setting [11]) and 285 beats/min in series [4] (setting [12]).

As to `CNS(=O)(=O)CCN1C(=O)c2ccccc2C1=O` [2-Phthalimidoethanesulfone methylamide], the ED50 came to 170 mg/kg in series [2] (setting [9]), 189 mg/kg in series [5] and 112 mg/kg in [3] (setting [10]). Besides, the “HR ± SE … of test compound” value in [4] (6 mg/kg iv) amounted to 255 ± 51 beats/min; in [4] (12 mg/kg iv), 399 ± 22 beats/min. The results for the “Ouabain dose ± SE, inducing arrhythmia” value in series [4] (6 mg/kg iv) and in [4] (12 mg/kg iv) were 0.188 ± 0.017 mg/kg and 0.195 ± 0.015 mg/kg, respectively. Further, the “Ouabain dose ± SE, inducing asystole” value in series [4] (6 mg/kg iv) worked out at 0.345 ± 0.02 mg/kg; in [4] (12 mg/kg iv), 0.265 ± 0.05 mg/kg. For the same compound, the entries for the “HR ± SE, O-value” in series [4] (setting [12]) and in series [4] (setting [13]) were 261 ± 45 beats/min and 369 ± 30 beats/min, respectively.

One may read the ED50 as the midpoint of the dose-response relation.

These data come from US4556673A, “Use of phthalyltaurine sulfonamide derivatives in treating epilepsy and arrythmia” (priority 1980, dated 1985).
